What was measured:
[1] = target: T1, Beta-3 adrenergic receptor (Homo sapiens, UniProt P13945); experiment: Agonistic activity against the cloned human Beta-3 adrenergic receptor was measured by its by its ability to stimulate adenylyl cyclase; format: functional
Target sequence in this assay (P13945 whole entry): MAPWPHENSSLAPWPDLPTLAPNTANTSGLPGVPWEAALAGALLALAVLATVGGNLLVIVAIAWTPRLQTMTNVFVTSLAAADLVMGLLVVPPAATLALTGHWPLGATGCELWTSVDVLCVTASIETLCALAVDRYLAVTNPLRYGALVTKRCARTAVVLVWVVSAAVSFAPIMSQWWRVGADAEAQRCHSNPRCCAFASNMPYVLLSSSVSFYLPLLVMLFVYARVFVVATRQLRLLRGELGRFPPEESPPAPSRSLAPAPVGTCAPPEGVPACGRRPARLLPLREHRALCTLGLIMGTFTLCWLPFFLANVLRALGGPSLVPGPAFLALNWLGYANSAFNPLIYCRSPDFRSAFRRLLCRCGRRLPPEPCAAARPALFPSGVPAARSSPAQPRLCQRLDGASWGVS

[2] = target: T2, Beta-1 adrenergic receptor (Homo sapiens, UniProt P08588); experiment: Agonistic activity against the cloned human Beta-1 adrenergic receptor was measured by its by its ability to stimulate adenylyl cyclase; format: functional
Target sequence in this assay (P08588 whole entry): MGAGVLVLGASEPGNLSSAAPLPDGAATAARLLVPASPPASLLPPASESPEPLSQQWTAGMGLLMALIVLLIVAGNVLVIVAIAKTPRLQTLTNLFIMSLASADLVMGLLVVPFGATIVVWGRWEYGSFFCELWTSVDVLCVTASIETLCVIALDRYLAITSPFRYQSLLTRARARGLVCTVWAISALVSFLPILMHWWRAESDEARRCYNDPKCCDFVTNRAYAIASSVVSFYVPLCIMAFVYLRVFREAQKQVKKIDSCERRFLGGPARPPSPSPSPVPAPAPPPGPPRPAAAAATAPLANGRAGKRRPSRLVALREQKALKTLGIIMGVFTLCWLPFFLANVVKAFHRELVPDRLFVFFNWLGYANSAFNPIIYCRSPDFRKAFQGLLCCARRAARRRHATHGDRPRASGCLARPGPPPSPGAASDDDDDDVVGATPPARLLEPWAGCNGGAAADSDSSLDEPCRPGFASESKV

[3] = target: T2, Beta-1 adrenergic receptor; experiment: Inhibitory activity against cloned human Beta-1 adrenergic receptor in the presence of [125I]iodocyanopindolol in CHO cells by receptor binding assay; format: cell-based
Target sequence in this assay (P08588 whole entry): as above

[4] = target: T1, Beta-3 adrenergic receptor; experiment: Adenylyl cyclase activation expressed as percent of maximal stimulation with isoproterenol at the cloned human Beta-3 adrenergic receptor at 10 uM; format: functional
Target sequence in this assay (P13945 whole entry, looked up): as the sequence (P13945 whole entry) above

[5] = target: T3, Beta-2 adrenergic receptor (Homo sapiens, UniProt P07550); experiment: Inhibitory activity against cloned human Beta-2 adrenergic receptor in the presence of [125I]iodocyanopindolol in CHO cells by receptor binding assay; format: cell-based
Target sequence in this assay (P07550 whole entry): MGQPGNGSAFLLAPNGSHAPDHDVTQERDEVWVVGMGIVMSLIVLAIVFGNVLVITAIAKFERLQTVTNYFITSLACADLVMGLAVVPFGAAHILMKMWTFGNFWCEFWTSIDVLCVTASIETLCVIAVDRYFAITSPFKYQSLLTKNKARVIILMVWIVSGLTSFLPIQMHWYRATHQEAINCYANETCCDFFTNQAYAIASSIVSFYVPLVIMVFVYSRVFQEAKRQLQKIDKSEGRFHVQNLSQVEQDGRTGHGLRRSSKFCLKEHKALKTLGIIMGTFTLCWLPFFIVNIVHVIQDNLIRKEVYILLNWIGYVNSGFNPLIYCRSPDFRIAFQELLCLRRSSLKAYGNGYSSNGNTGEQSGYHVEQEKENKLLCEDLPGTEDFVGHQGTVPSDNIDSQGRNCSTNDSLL

[6] = Compound was evaluated for the half-life (t 1/2) in hours; format: ADME, organism-based, Canis lupus familiaris; conditions: dog, in vivo
[7] = Oral bioavailability in dog (p.o. dosing of 0.05 M citric acid/0.05 M hydrochloric acid solution); format: ADME, organism-based, Canis lupus familiaris; conditions: in vivo
[8] = Oral bioavailability in rat; format: ADME, organism-based; conditions: in vivo
[9] = Oral bioavailability in dog; format: ADME, organism-based, Canis lupus familiaris; conditions: in vivo
[10] = target: T3, Beta-2 adrenergic receptor; experiment: Adenylyl cyclase activation expressed as percent of maximal stimulation with isoproterenol at the cloned human Beta-2 adrenergic receptor at 10 uM; format: functional
Target sequence in this assay (P07550 whole entry, looked up): as the sequence (P07550 whole entry) above

[11] = target: T1, Beta-3 adrenergic receptor; experiment: Inhibitory activity against cloned human Beta-3 adrenergic receptor in the presence of [125I]iodocyanopindolol expressed in CHO cells by receptor binding assay; format: cell-based
Target sequence in this assay (P13945 whole entry): as the sequence (P13945 whole entry) above

[12] = target: T3, Beta-2 adrenergic receptor; experiment: Agonistic activity against the cloned human Beta-2 adrenergic receptor was measured by its by its ability to stimulate adenylyl cyclase; format: functional
Target sequence in this assay (P07550 whole entry): as the sequence (P07550 whole entry) above

[13] = target: T2, Beta-1 adrenergic receptor; experiment: Adenylyl cyclase activation expressed as percent of maximal stimulation with isoproterenol at the cloned human Beta-1 adrenergic receptor at 10 uM; format: functional
Target sequence in this assay (P08588 whole entry, looked up): as the sequence (P08588 whole entry) above

[14] = target: T2, Beta-1 adrenergic receptor; experiment: Inhibitory activity against cloned human Beta-1 adrenergic receptor in the presence of [125I]iodocyanopindolol expressed in CHO cells by receptor binding assay; format: cell-based
Target sequence in this assay (P08588 whole entry): as above

Monkey = experiment: Compound was tested for agonistic activity for glycerolemia in rhesus monkey; format: functional; conditions: Cercopithecidae, in Macaca mulatta
[15] = target: T3, Beta-2 adrenergic receptor; experiment: Adenylyl cyclase activation expressed as percent of maximal stimulation with isoproterenol against the cloned human Beta-2 adrenergic receptor at 10 uM; format: functional
Target sequence in this assay (P07550 whole entry, looked up): as the sequence (P07550 whole entry) above

[16] = target: T2, Beta-1 adrenergic receptor; experiment: Adenylyl cyclase activation expressed as percent of maximal stimulation with isoproterenol against the cloned human Beta-1 adrenergic receptor 10 uM; format: functional
Target sequence in this assay (P08588 whole entry, looked up): as the sequence (P08588 whole entry) above

Row | Structure (SMILES) | EC50 [1] [nM] | EC50 [2] [nM] | IC50 [3] [nM] | Activation [4] [%] | IC50 [5] [nM] | half-life [6] [h] | bioavailability [7] [%] | other results
1 | CCCCCCCCn1nnn(-c2ccc(S(=O)(=O)Nc3ccc(CCNC[C@H](O)c4cccnc4)cc3)cc2)c1=O | 6.3 | 370 | 1400 | 57 | 570 |  |  | 
2 | O=C1N(CCCC2CCCC2)CCN1c1ccc(S(=O)(=O)Nc2ccc(CCNC[C@H](O)c3cccnc3)cc2)cc1 [L-766892] |  |  |  |  |  | 3.5 | 17 | 
3 | CCCCCCn1ccn(-c2ccc(S(=O)(=O)Nc3ccc(CCNC[C@H](O)c4cccnc4)cc3)cc2)c1=O [L-764646] |  |  |  |  |  | 3.6 | 12 | 
4 | O=c1n(CCCC2CCCC2)nnn1-c1ccc(S(=O)(=O)Nc2ccc(CCNC[C@H](O)c3cccnc3)cc2)cc1 | 13 | 1900 |  | 75 | 1600 |  |  | bioavailability [8]: 27%; bioavailability [9]: 27%; Activation [10]: 26%; IC50 [11]: 92 nM; EC50 [12]: 1800 nM; Activation [13]: 33%; IC50 [14]: 3400 nM; ED50 (Monkey): 0.21 mg/kg
5 | CCCCCCn1nnn(-c2ccc(S(=O)(=O)Nc3ccc(CCNC[C@H](O)c4cccnc4)cc3)cc2)c1=O | 30 |  | 5000 | 67 | 3300 |  |  | Activation [15]: 9%; Activation [16]: 19%
